What was measured:
[1] = molecular target: truncated human beta-secretase (residues 1-458, His6-tagged) (Homo sapiens (Human), UniProt P56817); assay: BACE enzyme assay (fluorescence quench, Example 434A); type: biochemical
BACE = BACE (Homo sapiens (Human), UniProt P56817); assay: BACE cell assay: secreted Aβ 1-40 in H4-APPsw cells (AlphaLISA/ELISA, Example 434B); type: cell-based; settings: in vitro cell activity, Aβ 1-40 in culture media after overnight treatment
BACE, sequence (P56817 46-501 limits assumed): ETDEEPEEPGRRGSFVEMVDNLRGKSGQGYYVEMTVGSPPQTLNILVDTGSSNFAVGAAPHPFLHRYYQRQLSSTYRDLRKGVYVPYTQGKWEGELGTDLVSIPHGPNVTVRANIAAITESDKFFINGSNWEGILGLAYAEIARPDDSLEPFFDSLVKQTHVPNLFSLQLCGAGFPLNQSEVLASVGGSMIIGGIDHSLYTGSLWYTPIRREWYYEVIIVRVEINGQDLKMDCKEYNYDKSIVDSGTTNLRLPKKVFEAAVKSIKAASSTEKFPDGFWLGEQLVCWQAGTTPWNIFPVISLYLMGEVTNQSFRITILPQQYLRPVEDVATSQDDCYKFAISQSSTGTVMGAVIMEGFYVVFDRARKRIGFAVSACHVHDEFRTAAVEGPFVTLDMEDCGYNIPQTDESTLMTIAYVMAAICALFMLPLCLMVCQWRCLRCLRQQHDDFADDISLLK
Description: For the assay, cells are treated overnight in the presence of inhibitor and the culture media are subjected to ELISA analysis of soluble Amyloid Beta 1-40 (Aβ 1-40).
H4 neuroglioma cell line was cultured in DMEM with 10% FBS and 1% penicillin/streptomycin (Culture Medium) at 37° C., 5% CO2.
Split H4-APPsw cells in Culture Medium and culture overnight such that cells will be ˜80% confluent next morning.
After determining the desired final concentration of compound to be tested, create a 500× dilution plate. Add DMSO, but not inhibitor, to each well of Column 1. […] Add compounds of interest at 500× desired final concentration to wells A3-A10. Add DMSO, but not inhibitor, to each well of Columns 11 and 12. Dilute contents of Row A 1:3 in Row B, then continue through Rows C-H.
To create a 2× solution of compound in media, add 996 μL Culture Medium to each well of a 96-well 2 mL deep well plate (Media Plate) in biosafety hood. Add 4 μL 5 mM control compound to Media Plate wells A1-D1 for determination of full inhibition.
With a multichannel pipettor, mix each well of Media Plate several times to insure homogeneity. Add 100 μL of mixture to Black polymer bottom P-D-L plates. Next, place Medium Plate and Cell Plate in the incubator. […]
After 16 h incubation, spin Cell Plate for 8 min at 1200 rpm. The primary reading of Aβ 1-40 levels is done using PerkinElmer AlphaLISA technology. […]

truncated human beta-secretase (residues 1-458, His6-tagged), sequence (P56817 22-458): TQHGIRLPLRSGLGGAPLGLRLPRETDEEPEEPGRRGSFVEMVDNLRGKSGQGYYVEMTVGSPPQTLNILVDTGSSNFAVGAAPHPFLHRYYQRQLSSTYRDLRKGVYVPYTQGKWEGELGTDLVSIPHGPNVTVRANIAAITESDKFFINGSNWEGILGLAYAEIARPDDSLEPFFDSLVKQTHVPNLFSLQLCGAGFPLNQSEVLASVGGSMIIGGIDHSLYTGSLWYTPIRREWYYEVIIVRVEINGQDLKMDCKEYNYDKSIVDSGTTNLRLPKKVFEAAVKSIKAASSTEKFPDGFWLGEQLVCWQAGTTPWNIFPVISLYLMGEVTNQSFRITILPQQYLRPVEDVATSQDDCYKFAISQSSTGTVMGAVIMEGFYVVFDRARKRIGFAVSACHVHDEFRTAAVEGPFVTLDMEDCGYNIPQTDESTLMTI

SMILES	IC50 [1] [nM]	IC50 (BACE) [nM]
CN1OC2(N=C1N)c1ccccc1CC21CCc2ccccc2CC1 (centres unmarked) [Compound 35]	105	–
CCOC1CCC2(CC1)Cc1ccc(-c3cccc(C#N)c3)cc1C21N=C(N)N(C)O1 (centres unmarked) [Compound 49]	–	< 1000

From patent US10336717B2, “Inhibitors of beta-secretase” (Vitae Pharmaceuticals, Inc., priority 2009, dated 2019)
